# Conditions: [M+H]+; instrument: TW; Major Mix IMS/Tof Calibration Kit (Waters)
row,SMILES,collision cross section (N2) [Å²]
1,N=C(N)Nc1nc(CSCCC(=N)NS(N)(=O)=O)cs1 [Famotidine],165.9
2,O=C(NCC1CCCCN1)c1cc(OCC(F)(F)F)ccc1OCC(F)(F)F (configuration not stated) [Flecainide],192.2
3,OC(Cn1cncn1)(Cn1cncn1)c1ccc(F)cc1F [Fluconazole],163.9
4,CCOC(=O)c1ncn2c1CN(C)C(=O)c1cc(F)ccc1-2 [Flumazenil],165.8
5,COCCCC/C(=N\OCCN)c1ccc(C(F)(F)F)cc1 [Fluvoxamine],177
6,COc1ccc(CC(C)NCC(O)c2ccc(O)c(NC=O)c2)cc1 (configuration not stated) [Formoterol],178.6
7,O=C1CN=C(c2ccccc2)c2cc(Cl)ccc2N1CC(F)(F)F [Halazepam],170.9
8,CC(=O)O[C@H]1C=C[C@H]2[C@H]3Cc4ccc(O)c5c4[C@@]2(CCN3C)[C@H]1O5 [Heroin-M 6-MAM],175.1
9,C[C@]12CCC(=O)C=C1CC[C@@H]1[C@@H]2[C@@H](O)C[C@@]2(C)[C@H]1CC[C@]2(O)C(=O)CO [Hydrocortisone],186.6
10,CCCCn1cc(C(=O)c2cccc3ccccc23)c2ccccc21 [JWH-073],182.5
11,CCN(CC)C(=O)[C@@H]1C=C2c3cccc4[nH]cc(c34)C[C@H]2N(C)C1 [LSD],179.5
12,CCN(CC)CC(=O)Nc1c(C)cccc1C [Lidocaine],157.7
13,CN1C(=O)C(O)N=C(c2ccccc2Cl)c2cc(Cl)ccc21 (configuration not stated) [Lormetazepam],169.5
14,CCC(Cc1ccc2c(c1)OCO2)NC (configuration not stated) [MBDB],148.4
15,CCNC(C)Cc1ccc2c(c1)OCO2 (configuration not stated) [MDEA],147.5
16,CC(=O)Nc1cccc(O)c1 [Metacetamol],129.8
17,CC(=O)OC1CC[C@H]2[C@@H]3CC[C@H]4CC(=O)C=C(C)[C@]4(C)[C@H]3CC[C@]12C (some centres not stated) [Metenolone acetate],187.6
18,Cc1ccccc1-n1c(C)nc2ccccc2c1=O [Methaqualone],155
19,CCNC1(c2cccc(OC)c2)CCCCC1=O (configuration not stated) [Methoxetamine],159.6
20,CCN(CC)CCNC(=O)c1cc(Cl)c(N)cc1OC [Metoclopramide],173.2
21,Cc1[nH]c(=O)c(C#N)cc1-c1ccncc1 [Milrinone],150.4
22,c1ccc2c(c1)Cc1cccnc1N1CCNCC21 (configuration not stated) [Mirtazapine-M N-desmethyl],156.9
23,Oc1ccc2c3c1OC1C(O)C=CC4C(C2)NCCC341 (configuration not stated) [Morphine-M Nor],161.5
24,COc1ccc(N2CCNCC2)cc1 [N-(p-Methoxyphenyl)piperazine (pMeOPP)],141.9
25,C=CCN1CC[C@]23c4c5ccc(O)c4O[C@H]2C(=O)CC[C@@]3(O)[C@H]1C5 [Naloxone],171.8
26,C[C@]12CC[C@H]3[C@@H](CCC4=CC(=O)CC[C@@H]43)[C@@H]1CC[C@@H]2O [Nandrolone],167.5

row,SMILES,collision cross section (N2) [Å²]
1,COCCOC(=O)C1=C(C)NC(C)=C(C(=O)OC(C)C)C1c1cccc([N+](=O)[O-])c1 (configuration not stated) [Nimodipine],197.8
2,CN/C(=C\[N+](=O)[O-])NCCSCc1csc(CN(C)C)n1 [Nizatidine],168.4
3,COc1ccc2c(c1OC)C(=O)O[C@@H]2[C@H]1c2c(cc3c(c2OC)OCO3)CCN1C [Noscapine],194.3
4,COc1ccc(Cc2nccc3cc(OC)c(OC)cc23)cc1OC [Papaverine],185.3
5,CC(C)=CCN1CCC2(C)c3cc(O)ccc3CC1C2C (configuration not stated) [Pentazocine],173.5
6,CCCC(NC)C(=O)c1ccccc1 (configuration not stated) [Pentedrone],145.7
7,CCN(CC)CCOCCOC(=O)C1(c2ccccc2)CCCC1 [Pentoxyverine],175.5
8,CC1NCCOC1c1ccccc1 (configuration not stated) [Phenmetrazine],138.9
9,O=c1[nH]c2ccccc2n1C1CCN(CCCC(c2ccc(F)cc2)c2ccc(F)cc2)CC1 [Pimozide],214.4
10,CCN(CC)CCOC(=O)c1ccc(N)cc1 [Procaine],154.6
11,CC(C)NC(=N)NC(=N)Nc1ccc(Cl)cc1 [Proguanil],161.3
12,CN(C)CCc1c[nH]c2cccc(O)c12 [Psilocin],144.8
13,CC(C)(C)NCC(O)c1ccc(O)c(CO)c1 (configuration not stated) [Salbutamol],160
14,CN1[C@@H]2C[C@@H](OC(=O)[C@H](CO)c3ccccc3)C[C@H]1[C@@H]1O[C@@H]12 [Scopolamine],171.1
15,C#CCN(C)[C@H](C)Cc1ccccc1 [Selegiline],142.1
16,O=C(O)c1cc(/N=N/c2ccc(S(=O)(=O)Nc3ccccn3)cc2)ccc1O [Sulfasalazine],199.7
17,CCN1CCCC1CNC(=O)c1cc(S(N)(=O)=O)ccc1OC (configuration not stated) [Sulpiride],184.3
18,CCCCNc1ccc(C(=O)OCCN(C)C)cc1 [Tetracaine],173.1
19,CN1c2ccccc2C(NCCCCCCC(=O)O)c2ccc(Cl)cc2S1(=O)=O (configuration not stated) [Tianeptine],197
20,COc1ccc(CCNCCCC(C#N)(c2ccc(OC)c(OC)c2)C(C)C)cc1OC (configuration not stated) [Verapamil-M nor],207.3
21,Cc1cccc(C)c1NC1=NCCCS1 [Xylazine],147.9
22,Cc1cc(C(C)(C)C)cc(C)c1CC1=NCCN1 [Xylometazoline],170.4
23,Cc1ccc2nc(-c3ccc(C(=O)O)cc3)c(CC(=O)N(C)C)n2c1 [Zolpidem-M Carboxylic acid],184.4
24,CN1CCN(C(=O)OC2c3nccnc3C(=O)N2c2ccc(Cl)cn2)CC1 (configuration not stated) [Zopiclone],188.5
25,FC(F)(F)c1cccc(N2CCNCC2)c1 [m-Trifluorophenylpiperazine (TFMPP)],151.1

# Results, then the compound that gave them:
row,collision cross section (N2) [Å²],SMILES
1,186.1,CN1CCC[C@@H]1Cc1c[nH]c2ccc(CCS(=O)(=O)c3ccccc3)cc12 [Eletriptan]
2,176.5,CNCCC(Oc1ccc(C(F)(F)F)cc1)c1ccccc1 (configuration not stated) [Fluoxetine]
3,166.5,CN(C)CCCN1c2ccccc2CCc2ccccc21 [Imipramine]
4,144.6,c1ccc([C@H]2CN3CCSC3=N2)cc1 [Levamisole]
5,174.3,CNC[C@@H](C)CN1c2ccccc2Sc2ccc(OC)cc21 [Levomepromazine-M N-desmethyl]
6,222.7,CN(C)C(=O)C(CCN1CCC(O)(c2ccc(Cl)cc2)CC1)(c1ccccc1)c1ccccc1 [Loperamide]
7,200.3,CCCCc1nc(Cl)c(CO)n1Cc1ccc(-c2ccccc2-c2nn[nH]n2)cc1 [Losartan]
8,164.5,CN1CCN2c3ccccc3Cc3ccccc3C2C1 (configuration not stated) [Mianserin]
9,161,CN1CCN2c3ncccc3Cc3ccccc3C2C1 (configuration not stated) [Mirtazapine]
10,175.5,Cc1cc2c(s1)Nc1ccccc1N=C2N1CCN(C)CC1 [Olanzapine]
11,153.8,NC(=O)N1c2ccccc2CC(=O)c2ccccc21 [Oxcarbazepine]
12,183.2,Fc1ccc([C@@H]2CCNC[C@H]2COc2ccc3c(c2)OCO3)cc1 [Paroxetine]
13,137.7,Cc1cc(=O)n(-c2ccccc2)n1C [Phenazone]
14,160,CCC(c1ccccc1)c1c(O)c2ccccc2oc1=O (configuration not stated) [Phenprocoumon]
15,172.6,OC(CCN1CCCC1)(c1ccccc1)C1CCCCC1 (configuration not stated) [Procyclidine]
16,161.5,CN(C)CCCN1c2ccccc2Sc2ccccc21 [Promazine]
17,178.5,CCCNCC(O)COc1ccccc1C(=O)CCc1ccccc1 (configuration not stated) [Propafenone]
18,162.8,CNCCCC1c2ccccc2C=Cc2ccccc21 [Protriptyline]
19,175.8,C=C[C@H]1C[N@@]2CC[C@H]1C[C@@H]2[C@@H](O)c1ccnc2ccc(OC)cc12 [Quinidine]
20,177.4,C=C[C@H]1C[N@@]2CC[C@H]1C[C@H]2[C@H](O)c1ccnc2ccc(OC)cc12 [Quinine]
21,213.8,O=c1[nH]ccn1CCN1CCC(c2cn(-c3ccc(F)cc3)c3ccc(Cl)cc23)CC1 [Sertindol-M dehydro]
22,229.8,CC(C)(C)c1ccc(C(O)CCCN2CCC(C(O)(c3ccccc3)c3ccccc3)CC2)cc1 (configuration not stated) [Terfenadine]
23,188.1,CN1CCN(CCCN2c3ccccc3Sc3ccc(C(F)(F)F)cc32)CC1 [Trifluoperazine]
24,171.2,CC(CN(C)C)CN1c2ccccc2CCc2ccccc21 (configuration not stated) [Trimipramine]
25,186.5,COC(=O)[C@@H]1[C@H]2C[C@H]3c4[nH]c5ccccc5c4CCN3C[C@@H]2CC[C@@H]1O [Yohimbine]

# Conditions: [M+Na-H2O]+; instrument: DT; stepped-field
row,collision cross section (N2) [Å²],SMILES
1,172.1,OCC1OC(OC2(CO)OC(CO)C(O)C2O)C(O)C(O)C1O (configuration not stated) [(Hex)2]

# Reference: the C3SDB collision cross section collection
